Marks after values point to notes of the source that are not given here.
Key:
[1] = tested on: DEN-induced liver fibrosis in rats; assay: DEN-induced rat liver fibrosis model; type: in vivo, SD rat; details: 12 weeks, vs model group
Description: Experimental method: An SD rat liver damage model was constructed through intermittent intraperitoneal injection of DEN. A model group was injected intraperitoneally with DEN at 50 mg/kg twice a week in the first 4 weeks and then once a week in the 5th to 12th weeks. An SMI0 intervention group was divided into SMI0+DEN low-dose and high-dose groups and an SMI0 high-dose continuous administration group, where the SMI0+DEN low-dose and high-dose groups were intragastrically administered with the compound SMI0 at 30 mg/kg and 150 mg/kg 5 min before DEN administration each time, respectively; and the SMI0 high-dose continuous administration group was intragastrically administered with the compound SMI0 at 150 mg/kg every day from the 1st week to the 12th week. At the end of molding, blood was collected from the orbit, and plasma liver function indexes of rats were determined by an automatic biochemical analyzer (model group, n=10 rats; SMI0 compound low-dose group, n=21 rats; SMI0 compound+DEN high-dose group, n=28 rats; and SMI0 compound high-dose continuous administration group, n=24 rats).

[2] = tested on: A549 lung cancer cells / M2 macrophages; assay: Proliferation of A549 cells co-cultivated with M2 macrophages (conditional media, CCK8); type: cell-based, human; details: SMI0 50 μmol/L during M2 induction, vs M2 macrophage co-cultivation group, P<0.05
Description: Experimental method: PMA was used at […] to induce the transformation of human monocytic leukemia cells THP-1 into MO macrophages, and then IL-4 and IL-13 were used at 20 ng/mL to induce the transformation of MO macrophages into M2 macrophages. A supernatant was collected to establish a co-cultivation system with an A549 lung cancer cell, thereby simulating a M2-type macrophage microenvironment of lung cancer. In the SMI0 intervention group, SMI0 (50 μmol/L) was added for intervention while interleukin was added for induction. Culture supernatants of the MO macrophages, M2 macrophages, and SMI0 intervention group were collected to prepare conditional media. […] cells/mL, then 100 μL of each of different conditional media was added to each well, and 24 h later, 10 μL of a CCK8 reagent was added to each well; and the cells were further cultivated for 2 h, and an absorbance OD value of each well was determined at 450 nm by a microplate reader. 3 replicates were set for each well, and an average was taken. The proliferation activity was calculated based on the OD value.

CYP2E1 = biological target: T1, CYP2E1 (Mus musculus, UniProt Q05421); assay: CYP2E1 activity (liver microsome) in mouse Lewis lung cancer in situ model; type: in vivo; details: SMI0 intervention group vs model group, P<0.05
T1 construct: from tissue; host or cells: liver microsomes of treated model mice (calcium precipitation)
Description: Experimental method: A calcium precipitation method was used to prepare a mouse liver microsome, and a Braford method was used to determine a protein concentration in the microsome. An incubation system was prepared with 2×PBS, a CZX solution, and the liver microsome at a final concentration of 0.5 mg/mL, and then pre-incubated at 37° C. for 5 min; NADPH was added to initiate a reaction, and a resulting mixture was incubated at 37° C. for 30 min and then placed on ice to terminate the reaction; and ethyl acetate was added to extract 6-hydroxychlorzoxazone, a resulting mixture was vortexed and centrifuged, and a resulting upper organic phase was collected and blow-dried with nitrogen. A peak area of a CZX metabolite 6-hydroxychlorzoxazone was detected by HPLC under the following conditions: methanol:water=56:44, and detection wavelength: 287 nm. A concentration A C of the metabolite 6-hydroxychlorzoxazone was calculated through substitution into a standard curve; and a reaction rate of conversion of CZX into 6-hydroxychlorzoxazone was calculated according to V(pmol/min/mg)=(ΔC*1000)/(B*T) to evaluate an enzymatic activity of CYP2E1, where B represents a protein concentration of the microsome (mg/mL) and T represents an incubation time (min). A correlation between CYP2E1 activity and lung tumor weight in the Lewis lung cancer in situ model was analyzed.

Lewis lung cancer cells = assay: Direct effect on proliferation of Lewis lung cancer cells (CCK8); type: cell-based; details: up to 100 μmol/L, 24 h
Description: Experimental method: Lewis lung cancer cells and A549 lung cancer cells in a logarithmic growth phase each were selected and inoculated into a 96-well plate at a concentration of 1*10^5 cells/mL, then 100 μL of a basic medium including SMI0 at different concentrations (0 μmol/L, 0.16 μmol/L, 0.8 μmol/L, 4 μmol/L, 20 μmol/L, and 100 μmol/L) was added to each well, and 24 h later, 10 μL of a CCK8 reagent was added to each well; and the cells were further cultivated for 2 h, and an absorbance OD value of each well was determined at 450 nm by a microplate reader. 3 replicates were set for each well, and an average was taken. The proliferation activity was calculated based on the OD value.

H22 liver cancer cells = assay: Direct effect on H22 liver cancer cells; type: cell-based; details: up to 100 μmol/L, 24 h
Description: Experimental method: HepG2 liver cancer cells and H22 liver cancer cells in a logarithmic growth phase each were selected and inoculated into a 96-well plate at a concentration of 1*10^5 cells/mL, and then 100 μL of a basic medium including SMI0 at different concentrations (0 μmol/L, 0.16 μmol/L, 0.8 μmol/L, 4 μmol/L, 20 μmol/L, and 100 μmol/L) was added to each well; and 24 h later, the proliferation activity of HepG2 was determined by a CCK8 method, a migration ability of HepG2 was determined by wound-healing assay, and an apoptosis ability of HepG2 was determined by flow cytometry (FCM).

ID-8 cells = assay: In vitro inhibition experiment on ID-8 cells; type: cell-based, murine; details: 0 μM to 320 μM, 48 h
[3] = tested on: hyperlipidemia and aortic atherosclerotic plaques in ApoE-/- mice; assay: ApoE-/- mouse hyperlipidemia model induced by a high-fat diet; type: in vivo; details: for High-density lipoprotein / Low-density lipoprotein / Total cholesterol / Triglyceride: serum, 16 weeks, n=8
Description: Experimental method: ApoE^−/− mice were fed with a high-fat and high-cholesterol feed to construct an ApoE^−/− mouse hyperlipidemia model. An SMI0 intervention group was divided into a low-dose intervention group and a high-dose intervention group, which were administered with the compound SMI0 at 30 mg/kg and 150 mg/kg every day from the beginning of modeling to the end of the 16-week modeling. At the end of the experiment, blood was collected from the orbit, and the levels of blood lipid-associated indexes in the serum of each mouse were determined by an automatic biochemical analyzer (8 mice in each group).

T1 sequence (Q05421 whole entry): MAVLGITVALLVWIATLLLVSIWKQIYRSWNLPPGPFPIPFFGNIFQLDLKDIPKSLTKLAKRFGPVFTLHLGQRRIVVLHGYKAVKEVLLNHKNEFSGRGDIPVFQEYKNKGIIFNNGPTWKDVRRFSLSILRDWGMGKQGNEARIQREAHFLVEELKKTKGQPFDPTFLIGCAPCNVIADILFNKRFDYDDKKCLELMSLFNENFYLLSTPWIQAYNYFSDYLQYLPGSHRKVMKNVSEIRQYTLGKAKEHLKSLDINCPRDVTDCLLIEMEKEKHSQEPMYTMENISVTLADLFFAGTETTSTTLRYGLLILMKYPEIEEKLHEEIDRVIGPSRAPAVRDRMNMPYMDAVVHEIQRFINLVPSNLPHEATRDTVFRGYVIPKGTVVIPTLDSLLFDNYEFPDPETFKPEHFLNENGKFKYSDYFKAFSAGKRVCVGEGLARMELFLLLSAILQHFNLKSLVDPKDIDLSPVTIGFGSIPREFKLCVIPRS

CC(=O)c1scnc1C [SMI0]
liver coefficient ([1]; SMI0 intervention group (30, 150 mg/kg before DEN; 150 mg/kg daily)): reduced to varying degrees | Collagen I ([1]; SMI0 intervention group): reduced to varying degrees | liver fibrosis Ishark score ([1]; SMI0 intervention group): reduced to varying degrees | liver fibrosis Masson staining area percentage ([1]; SMI0 intervention group): reduced to varying degrees | α-SMA ([1]; SMI0 intervention group): reduced to varying degrees | proliferation activity of A549 cells [2]: significantly weakened | CYP2E1 activity (CYP2E1): significantly reduced | effect on the proliferation of Lewis lung cancer cells (Lewis lung cancer cells): no significant inhibitory effect | effect on the proliferation, migration, and apoptosis of H22 liver cancer cells (H22 liver cancer cells): no significant inhibitory effect | inhibitory effect on ID-8 (ID-8 cells): no significant inhibitory effect | total area of aortic root lesions (HE staining) ([3]; SMI0 high-dose group 150 mg/kg vs model group, P<0.01): significantly reduced | total area of aortic root lesions (oil red O staining) ([3]; SMI0 high-dose group 150 mg/kg vs model group, P<0.05): significantly reduced | High-density lipoprotein ([3]; SMI0 30 mg/kg daily): 2.37 ± 0.49 mmol/L | Low-density lipoprotein ([3]; SMI0 30 mg/kg daily): 17.94 ± 11.16 mmol/L | Total cholesterol ([3]; SMI0 30 mg/kg daily): 20.45 ± 10.77 mmol/L | Triglyceride ([3]; SMI0 30 mg/kg daily): 0.56 ± 0.04 mmol/L | High-density lipoprotein ([3]; SMI0 150 mg/kg daily): 3.68 ± 0.33*^@ mmol/L | Low-density lipoprotein ([3]; SMI0 150 mg/kg daily): 1.50 ± 0.77^@ mmol/L | Total cholesterol ([3]; SMI0 150 mg/kg daily): 5.35 ± 0.55^@ mmol/L | Triglyceride ([3]; SMI0 150 mg/kg daily): 0.40 ± 0.10 mmol/L

Source: US20230277508A1, “USE OF COMPOUND AS CYP2E1 INHIBITOR” (SHANGHAI LING XI BIOTECHNOLOGY DEVELOPMENT CO., LTD., priority 2020, published 2023)
